{
  "source": "patent EP4691462A1",
  "about": "“SILYBIN-CONTAINING COMPOSITION” (Tianjin Tasly Sants Pharmaceutical Co., Ltd., priority 2023, dated 2024)",
  "data": [
    {"test_system": "Col1a1-Luci-reporter luciferase in LX-2 cells", "experiment": "HSCs activation model based on Col1a1-Luci-reporter luciferase in transfected LX-2 cells (Duo-Lite luciferase assay; CI by CompuSyn)", "format": "cell-based, human", "conditions": "10 µM, 20 µM, 50 µM, 12 hours", "description": "(§1) LX-2 cells were inoculated into 96-well plates and cultured to a suitable density. Then, Lipofectamine 3000 liposome transfection reagent was used to prepare transfection system. Each well was transfected with 0.1 µg plasmid, of which the Empty vector group was transfected with pEZX-FR03-hygro empty plasmid, and the Control group and other administration groups were transfected with pEZX-FR03-hygro-COL1A1-WT plasmid.\n(§2) The LX-2 cell line was transfected with plasmid for 6 hours, and then the drug-containing serum-free medium containing 2.5 mM, 5 mM, and 10 mM anti-fibrosis agent Pirfenidone was replaced according to groups for incubation for 12 hours, and then tested by the Duo-LitTM Luciferase Assay System kit.\n(§3) The cell culture plate to be tested was taken out into the incubator, and left at room temperature for 30 min to allow the temperature of the culture plate to be balanced to room temperature. Firefly luciferase activity was detected. The original culture medium was discarded, and added with 75 µl PBS, then added with Duo-Lite Luciferase detection reagent with the same volume as PBS, and was mixed evenly. The system was left at room temperature for 10 min to detect firefly luciferase luminescence.\n(§4) The LX-2 cell line was transfected with plasmid for 6 hours, and then the drug-containing serum-free medium containing 10 µM, 20 µM, 50 µM Silybin was replaced according to groups for incubation for 12 hours, and then tested by the Duo-LitTM Luciferase Assay System kit.\nas §4, with “µM silybin, 10 µM drug to be screened,” for “µM,”, “20” for “20 µM, 50”, “silybin, 20 µM drug to be screened at a mixed ratio of 1:1” for “Silybin”\n(§5) Cell activation inhibition rate% = (Control Group Firefly- Administration Group Firefly)/ Control Group Firefly ×100%. The CI value was obtained by analysis using micro-use CompuSyn software. […]", "values": [
      {"smiles": "COc1cc(C2Oc3cc([C@H]4Oc5cc(O)cc(O)c5C(=O)[C@@H]4O)ccc3OC2CO)ccc1O", "note": "(stereo partly shown) [silybin]", "inhibitory effect on activation of stellate cells in vitro": "no significant inhibitory effect"}
    ]},
    {"test_system": "Col1a1-Luci-reporter luciferase in LX-2 cells", "experiment": "HSCs activation model based on Col1a1-Luci-reporter luciferase in transfected LX-2 cells (Duo-Lite luciferase assay; CI by CompuSyn)", "format": "cell-based, human", "conditions": "5 mM and 10 mM, 12 hours, clear dose-dependence", "description": "as §1, §2, §3, §4\nas §4, with “µM silybin, 10 µM drug to be screened,” for “µM,”, “20” for “20 µM, 50”, “silybin, 20 µM drug to be screened at a mixed ratio of 1:1” for “Silybin”\nas §5", "values": [
      {"smiles": "Cc1ccc(=O)n(-c2ccccc2)c1", "note": "[Pirfenidone]", "expression level of luciferase": "significantly decreased"}
    ]},
    {"test_system": "Col1a1-Luci-reporter luciferase in LX-2 cells", "experiment": "HSCs activation model based on Col1a1-Luci-reporter luciferase in transfected LX-2 cells (Duo-Lite luciferase assay; CI by CompuSyn)", "format": "cell-based, human", "conditions": "named drug combined with silybin, mixed ratio 1:1, 12 hours, CI<0.90 synergistic, 0.90<CI<1.10 additive", "description": "as §1, §2, §3, §4\nas §4, with “µM silybin, 10 µM drug to be screened,” for “µM,”, “20” for “20 µM, 50”, “silybin, 20 µM drug to be screened at a mixed ratio of 1:1” for “Silybin”\nas §5", "values": [
      {"smiles": "OC[C@@H](O)[C@@H](O)[C@H](O)[C@H](O)CO", "note": "[D-mannitol]", "CI": 0.66},
      {"smiles": "O=C(O)COC(=O)Cc1ccccc1Nc1c(Cl)cccc1Cl", "note": "[aceclofenac]", "CI": 0.46},
      {"smiles": "CCOC(=O)C1=C(COCCN)NC(C)=C(C(=O)OC)C1c1ccccc1Cl", "note": "(stereo not shown) [amlodipine]", "CI": 0.62},
      {"smiles": "CCCC1O[C@@H]2C[C@H]3[C@@H]4CCC5=CC(=O)C=C[C@]5(C)[C@H]4[C@@H](O)C[C@]3(C)[C@]2(C(=O)CO)O1", "note": "(stereo partly shown) [budesonide]", "CI": 0.91},
      {"smiles": "COc1ccccc1OCCNCC(O)COc1cccc2[nH]c3ccccc3c12", "note": "(stereo not shown) [carvedilol]", "CI": 0.11},
      {"smiles": "COCCOC(=O)C1=C(C)NC(C)=C(C(=O)OC/C=C/c2ccccc2)C1c1cccc([N+](=O)[O-])c1", "note": "(stereo not shown) [cilnidipine]", "CI": 0.79},
      {"smiles": "CCC(=O)O[C@]1(C(=O)CCl)[C@@H](C)C[C@H]2[C@@H]3CCC4=CC(=O)C=C[C@]4(C)[C@@]3(F)[C@@H](O)C[C@@]21C", "note": "[clobetasol propionate]", "CI": 0.86},
      {"smiles": "COC(=O)C1=C(C)NC(C)=C(C(=O)OCCN2CCN(C(c3ccccc3)c3ccccc3)CC2)C1c1cccc([N+](=O)[O-])c1", "note": "(stereo not shown) [manidipine]", "CI": 0.54},
      {"smiles": "COC(=O)C1=C(C)NC(C)=C(C(=O)OCCN(C)Cc2ccccc2)C1c1cccc([N+](=O)[O-])c1", "note": "(stereo not shown) [nicardipine]", "CI": 0.31},
      {"smiles": "CCOc1ccccc1OCCN[C@H](C)Cc1ccc(OC)c(S(N)(=O)=O)c1", "note": "[tamsulosin]", "CI": 0.50},
      {"smiles": "CCCCC(=O)N(Cc1ccc(-c2ccccc2-c2nnn[nH]2)cc1)[C@H](C(=O)O)C(C)C", "note": "[valsartan]", "CI": 0.47}
    ]}
  ]
}
